This is an account of results in BindingDB's records for doi:10.7270/Q2N87841 (Burnham Center For Chemical Genomics, 2008).

As a reminder, the IC50 is the point on the concentration scale where inhibition reaches its midpoint. Lower therefore signals greater potency in that assay.

The assay concerns the target T1, Dual specificity protein phosphatase 6 (Rattus norvegicus, UniProt Q64346).
T1 sequence (Q64346 whole entry): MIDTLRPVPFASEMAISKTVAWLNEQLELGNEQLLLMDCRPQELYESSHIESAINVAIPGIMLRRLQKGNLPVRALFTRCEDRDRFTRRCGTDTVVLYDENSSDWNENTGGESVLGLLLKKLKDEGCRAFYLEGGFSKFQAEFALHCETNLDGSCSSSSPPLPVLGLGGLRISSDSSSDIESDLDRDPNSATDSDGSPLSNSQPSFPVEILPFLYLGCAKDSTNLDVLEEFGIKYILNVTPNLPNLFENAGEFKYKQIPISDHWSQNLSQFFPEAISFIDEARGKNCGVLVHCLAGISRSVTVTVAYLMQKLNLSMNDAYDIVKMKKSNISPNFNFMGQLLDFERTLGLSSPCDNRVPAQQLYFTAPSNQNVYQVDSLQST
Put plainly: MKP-3 phosphatase inhibitors, SAR follow-up, biochemical (AID 1055). Conditions: pH 7; 23 °C.

`Cc1ccc2c(c1)C1C=CCC1C(C(=O)O)N2` (stereo unspecified) [MLS-0067149.0001] had an IC50 of 7.9 µM.
